Assay results as given in PubChem BioAssay AID248 (DTP/NCI, 2004).
Values joined by “and” are separate entries in the source; they are usually repeats but may differ in a detail not shown here. Equal values may be shown once. Inconclusive results and toxic doses are left out. Rule as the data show it: active = T/C of 150% or more; inactive = T/C below 125%.

Tested on: L1210 leukemia ip in BDF1 mice, survival T/C
Experiment: NCI In Vivo Anticancer Drug Screen. Data for tumor model L1210 Leukemia (intraperitoneal) in B6D2F1 (BDF1) mice
Conditions: higher = longer survival
Method in brief: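 Read-out is survival time, reported as the treated-group measurement over the vehicle-control measurement.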

[1] = endpoint: mean survival time, dose: 100.0 mg/kg/injection, schedule: Q01DX001 (ip), vehicle: other
[2] = endpoint: mean survival time, dose: 200.0 mg/kg/injection, schedule: Q01DX001 (ip), vehicle: other
[3] = endpoint: mean survival time, dose: 400.0 mg/kg/injection, schedule: Q01DX001 (ip), vehicle: other
[4] = endpoint: mean survival time, dose: 100.0 mg/kg/injection, schedule: Q01DX009 (ip), vehicle: saline with Tween-80
[5] = endpoint: mean survival time, dose: 200.0 mg/kg/injection, schedule: Q01DX009 (ip), vehicle: saline with Tween-80
[6] = endpoint: mean survival time, dose: 400.0 mg/kg/injection, schedule: Q01DX009 (ip), vehicle: saline with Tween-80
[7] = endpoint: mean survival time, dose: 100.0 mg/kg/injection, schedule: Q04DX003 (ip), vehicle: saline with Tween-80
[8] = endpoint: mean survival time, dose: 200.0 mg/kg/injection, schedule: Q04DX003 (ip), vehicle: saline with Tween-80
[9] = endpoint: mean survival time, dose: 400.0 mg/kg/injection, schedule: Q04DX003 (ip), vehicle: saline with Tween-80
[10] = endpoint: mean survival time, dose: 100.0 mg/kg/injection, schedule: Q01DX001 (ip), vehicle: Klucel (hydroxypropylcellulose) (HPC)
[11] = endpoint: mean survival time, dose: 100.0 mg/kg/injection, schedule: Q01DX009 (ip), vehicle: Klucel (hydroxypropylcellulose) (HPC)
[12] = endpoint: mean survival time, dose: 100.0 mg/kg/injection, schedule: Q04DX003 (ip), vehicle: Klucel (hydroxypropylcellulose) (HPC)
[13] = endpoint: mean survival time, dose: 200.0 mg/kg/injection, schedule: Q01DX001 (ip), vehicle: Klucel (hydroxypropylcellulose) (HPC)
[14] = endpoint: mean survival time, dose: 200.0 mg/kg/injection, schedule: Q01DX009 (ip), vehicle: Klucel (hydroxypropylcellulose) (HPC)
[15] = endpoint: mean survival time, dose: 200.0 mg/kg/injection, schedule: Q04DX003 (ip), vehicle: Klucel (hydroxypropylcellulose) (HPC)
[16] = endpoint: mean survival time, dose: 400.0 mg/kg/injection, schedule: Q01DX001 (ip), vehicle: Klucel (hydroxypropylcellulose) (HPC)
[17] = endpoint: mean survival time, dose: 400.0 mg/kg/injection, schedule: Q01DX009 (ip), vehicle: Klucel (hydroxypropylcellulose) (HPC)
[18] = endpoint: mean survival time, dose: 400.0 mg/kg/injection, schedule: Q04DX003 (ip), vehicle: Klucel (hydroxypropylcellulose) (HPC)
[19] = endpoint: mean survival time, dose: 100.0 mg/kg/injection, schedule: Q04DX003 (ip), vehicle: saline
[20] = endpoint: mean survival time, dose: 200.0 mg/kg/injection, schedule: Q04DX003 (ip), vehicle: saline
[21] = endpoint: mean survival time, dose: 400.0 mg/kg/injection, schedule: Q04DX003 (ip), vehicle: saline
[22] = endpoint: mean survival time, dose: 20.0 mg/kg/injection, schedule: Q01DX001 (ip), vehicle: saline
[23] = endpoint: mean survival time, dose: 40.0 mg/kg/injection, schedule: Q01DX001 (ip), vehicle: saline

Measured: T/C

Cc1ccccc1C(=O)c1ccccc1C
inactive: endpoint: mean survival time, dose: 50.0 mg/kg/injection, schedule: Q01DX001 (ip), vehicle: other 118 % of control | [1] 102 % of control | [2] 113 % of control | [3] 107 % of control

CN(C)C1C(=O)C(C(N)=O)=C(O)C2(O)C(=O)C3=C(O)c4c(O)cccc4C(C)(O)C3CC12 (stereo not drawn)
inactive: endpoint: mean survival time, dose: 100.0 mg/kg/injection, schedule: Q01DX001 (ip), vehicle: saline 94 % of control | endpoint: mean survival time, dose: 200.0 mg/kg/injection, schedule: Q01DX001 (ip), vehicle: saline 96 % of control | endpoint: mean survival time, dose: 400.0 mg/kg/injection, schedule: Q01DX001 (ip), vehicle: saline 100 % of control | endpoint: median survival time, dose: 20.0 mg/kg/injection, schedule: Q04DX003 (ip), vehicle: water 103 % of control and 105 % of control | endpoint: median survival time, dose: 40.0 mg/kg/injection, schedule: Q04DX003 (ip), vehicle: water 97 % of control and 100 % of control | endpoint: median survival time, dose: 80.0 mg/kg/injection, schedule: Q04DX003 (ip), vehicle: water 97 % of control and 100 % of control | endpoint: median survival time, dose: 160.0 mg/kg/injection, schedule: Q04DX003 (ip), vehicle: water 105 % of control and 111 % of control

Cc1ccccc1NC(=O)C1CCC(C)(C(=O)O)C1(C)C (stereo not drawn)
inactive: [4] 102 % of control | [5] 102 % of control | [6] 95 % of control

CC1(CC(O)(C(F)(F)F)C(F)(F)F)NC(=O)NC1=O (stereo not drawn)
inactive: [4] 97 % of control | [7] 93 % of control | [5] 99 % of control | [8] 96 % of control | [6] 99 % of control | [9] 91 % of control

Oc1c(Br)ccc2c(O)c(Br)ccc12
inactive: [7] 87 % of control | endpoint: mean survival time, dose: 118.0 mg/kg/injection, schedule: Q01DX009 (ip), vehicle: saline with Tween-80 107 % of control | [8] 92 % of control | endpoint: mean survival time, dose: 235.0 mg/kg/injection, schedule: Q01DX009 (ip), vehicle: saline with Tween-80 103 % of control | [9] 95 % of control | endpoint: mean survival time, dose: 470.0 mg/kg/injection, schedule: Q01DX009 (ip), vehicle: saline with Tween-80 103 % of control

Cc1ncc(C(C)(O)c2ccc(Cl)cc2)n1Cc1ccccc1 (stereo not drawn)
inactive: [10] 112 % of control | [11] 92 % of control | [12] 92 % of control | [13] 98 % of control | [14] 89 % of control | [15] 88 % of control | [16] 118 % of control | [17] 92 % of control | [18] 92 % of control

C/C(=N\O)C(=O)c1ccccc1
inactive: [11] 98 % of control | [12] 107 % of control | [19] 103 % of control | [14] 100 % of control | [15] 100 % of control | [20] 107 % of control | [17] 93 % of control | [18] 104 % of control | [21] 108 % of control

CCCCCCCCCCCCCCCCN(C)c1ccc([N+](=O)[O-])cc1
inactive: [12] 94 % of control | [15] 96 % of control | [18] 96 % of control

O=C(O)/C=C/C(=O)N1Cc2cc3ccccc3nc2C1
inactive: endpoint: mean survival time, dose: 10.0 mg/kg/injection, schedule: Q04DX003 (ip), vehicle: saline 99 % of control | endpoint: mean survival time, dose: 20.0 mg/kg/injection, schedule: Q04DX003 (ip), vehicle: saline 99 % of control | endpoint: mean survival time, dose: 40.0 mg/kg/injection, schedule: Q04DX003 (ip), vehicle: saline 105 % of control | endpoint: mean survival time, dose: 80.0 mg/kg/injection, schedule: Q04DX003 (ip), vehicle: saline 100 % of control | endpoint: mean survival time, dose: 160.0 mg/kg/injection, schedule: Q04DX003 (ip), vehicle: saline 96 % of control

C/C(N=Nc1ccccc1)=N\Nc1cccc(C(F)(F)F)c1
inactive: endpoint: mean survival time, dose: 50.0 mg/kg/injection, schedule: Q01DX009 (ip), vehicle: Klucel (hydroxypropylcellulose) (HPC) 107 % of control | [11] 102 % of control | [14] 110 % of control | [17] 102 % of control

O=C(CCCCl)NCc1ccccc1[N+](=O)[O-]
inactive: [11] 96 % of control | [12] 101 % of control | [14] 90 % of control | [15] 93 % of control | [17] 91 % of control | [18] 97 % of control

C=CCN(CC=C)C(=O)CCN1CC1
inactive: endpoint: mean survival time, dose: 1.25 mg/kg/injection, schedule: Q01DX Z (ip), vehicle: saline 96 % of control | endpoint: mean survival time, dose: 2.5 mg/kg/injection, schedule: Q01DX Z (ip), vehicle: saline 96 % of control | endpoint: mean survival time, dose: 5.0 mg/kg/injection, schedule: Q01DX Z (ip), vehicle: saline 100 % of control | endpoint: mean survival time, dose: 10.0 mg/kg/injection, schedule: Q01DX Z (ip), vehicle: saline 98 % of control and 111 % of control | endpoint: mean survival time, dose: 10.0 mg/kg/injection, schedule: Q01DX Z (oral), vehicle: saline 108 % of control | [22] 103 % of control | endpoint: mean survival time, dose: 20.0 mg/kg/injection, schedule: Q01DX Z (ip), vehicle: saline 96 % of control | endpoint: mean survival time, dose: 20.0 mg/kg/injection, schedule: Q01DX Z (oral), vehicle: saline 117 % of control | [23] 115 % of control | endpoint: mean survival time, dose: 40.0 mg/kg/injection, schedule: Q01DX Z (oral), vehicle: saline 86 % of control

CCOc1ccc(/C=N/Nc2nnc(N/N=C/c3ccc(OCC)c(OCC)c3)c3ccccc23)cc1OCC
inactive: endpoint: mean survival time, dose: 50.0 mg/kg/injection, schedule: Q01DX001 (ip), vehicle: carboxymethylcellulose (CMC) 95 % of control

CCOC(=O)C(=CNc1ccc(Cl)cc1Cl)C(=O)OCC
inactive: [1] 93 % of control | [2] 101 % of control | [3] 101 % of control

CC(C)N=C(NC(C)C)N1CC1
inactive: endpoint: mean survival time, dose: 10.0 mg/kg/injection, schedule: Q01DX009 (ip), vehicle: saline 106 % of control | [22] 104 % of control | endpoint: mean survival time, dose: 20.0 mg/kg/injection, schedule: Q01DX009 (ip), vehicle: saline 105 % of control | [23] 104 % of control | endpoint: mean survival time, dose: 40.0 mg/kg/injection, schedule: Q01DX009 (ip), vehicle: saline 100 % of control

O=C(O)CCSCc1cc(=O)[nH]c(=O)[nH]1
inactive: [19] 96 % of control | [20] 98 % of control | [21] 96 % of control

C1=Cc2c3c(c4c(c2C1)C=CC4)CC=C3
inactive: endpoint: mean survival time, dose: 25.0 mg/kg/injection, schedule: Q01DX001 (ip), vehicle: Klucel (hydroxypropylcellulose) (HPC) 93 % of control | endpoint: mean survival time, dose: 50.0 mg/kg/injection, schedule: Q01DX001 (ip), vehicle: Klucel (hydroxypropylcellulose) (HPC) 97 % of control | [10] 101 % of control | [11] 95 % of control | [13] 92 % of control | [14] 88 % of control | [16] 93 % of control | [17] 95 % of control

COc1ccc(C)cc1NC(=O)Nc1cccc(F)c1
inactive: [11] 106 % of control | [14] 111 % of control | [17] 106 % of control

Oc1c(Cl)cc(C(c2cc(Cl)c(O)c(Cl)c2)C(c2cc(Cl)c(O)c(Cl)c2)c2cc(Cl)c(O)c(Cl)c2)cc1Cl
inactive: [19] 101 % of control | [20] 96 % of control | [21] 103 % of control
